From PubChem BioAssay (NCI)
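Each compound was tested at five concentrations against cells in 96-well plates for 48 hours. The concentration for 50% growth inhibition is given as GI50. TGI marks complete inhibition of growth.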

Columns and labels:
Test in all cases: NCI-60 cell line screen, 48 h
HS 578T breast = test system: HS 578T breast
T-47D breast = test system: T-47D breast
HCT-116 colon = test system: HCT-116 colon
K-562 leukemia = test system: K-562 leukemia
UACC-257 melanoma = test system: UACC-257 melanoma
SK-MEL-2 melanoma = test system: SK-MEL-2 melanoma
M14 melanoma = test system: M14 melanoma
HOP-92 NSCLC = test system: HOP-92 NSCLC
NCI-H23 lung = test system: NCI-H23 lung
HCT-15 colon = test system: HCT-15 colon
HCC-2998 colon = test system: HCC-2998 colon
NCI-H226 lung = test system: NCI-H226 lung
SK-MEL-28 melanoma = test system: SK-MEL-28 melanoma
TK-10 renal = test system: TK-10 renal
KM12 colon = test system: KM12 colon
SR leukemia = test system: SR leukemia
MDA-MB-231 breast = test system: MDA-MB-231 breast
786-0 renal = test system: 786-0 renal
HOP-62 NSCLC = test system: HOP-62 NSCLC
CAKI-1 renal = test system: CAKI-1 renal
MOLT-4 leukemia = test system: MOLT-4 leukemia
SF-268 CNS = test system: SF-268 CNS
SF-295 CNS = test system: SF-295 CNS
BT-549 breast = test system: BT-549 breast
HT29 colon = test system: HT29 colon
UACC-62 melanoma = test system: UACC-62 melanoma
MCF7 breast = test system: MCF7 breast
RXF 393 renal = test system: RXF 393 renal
SF-539 CNS = test system: SF-539 CNS
A498 renal = test system: A498 renal
HL-60(TB) leukemia = test system: HL-60(TB) leukemia
SNB-19 CNS = test system: SNB-19 CNS
OVCAR-8 ovarian = test system: OVCAR-8 ovarian
SW-620 colon = test system: SW-620 colon
LOX IMVI melanoma = test system: LOX IMVI melanoma
IGROV1 ovarian = test system: IGROV1 ovarian
ACHN renal = test system: ACHN renal
U251 CNS = test system: U251 CNS
OVCAR-4 ovarian = test system: OVCAR-4 ovarian
EKVX NSCLC = test system: EKVX NSCLC
RPMI-8226 leukemia = test system: RPMI-8226 leukemia
SNB-75 CNS = test system: SNB-75 CNS
CCRF-CEM leukemia = test system: CCRF-CEM leukemia
MDA-MB-435 = test system: MDA-MB-435
NCI-H460 lung = test system: NCI-H460 lung
COLO 205 colon = test system: COLO 205 colon
PC-3 prostate = test system: PC-3 prostate
SK-MEL-5 melanoma = test system: SK-MEL-5 melanoma
SK-OV-3 ovarian = test system: SK-OV-3 ovarian
NCI/ADR-RES ovarian = test system: NCI/ADR-RES ovarian
DU-145 prostate = test system: DU-145 prostate
SN12C renal = test system: SN12C renal
NCI-H522 lung = test system: NCI-H522 lung
OVCAR-5 ovarian = test system: OVCAR-5 ovarian
A549 NSCLC = test system: A549 NSCLC
MALME-3M melanoma = test system: MALME-3M melanoma
OVCAR-3 ovarian = test system: OVCAR-3 ovarian

`CC1=NN(c2nc(N)nc(CSc3nc4n(c(=S)n3)CCN4)n2)C(C)(C)C1` was tested, and the TGI (HS 578T breast) was 41300 nM, the TGI (T-47D breast) was 54100 nM and the TGI (HCT-116 colon) was > 100000 nM. For the same compound, the TGI (K-562 leukemia) was > 100000 nM, the TGI (UACC-257 melanoma) was > 100000 nM and the TGI (SK-MEL-2 melanoma) was 62600 nM. The TGI (M14 melanoma) was > 100000 nM, the TGI (HOP-92 NSCLC) was 44300 nM and the TGI (NCI-H23 lung) was > 100000 nM. For the same compound, the TGI (HCT-15 colon) was > 100000 nM, the TGI (HCC-2998 colon) was > 100000 nM and the TGI (NCI-H226 lung) was 53100 nM. For the same compound, the TGI (SK-MEL-28 melanoma) was > 100000 nM, the TGI (TK-10 renal) was > 100000 nM and the TGI (KM12 colon) was > 100000 nM. The TGI (SR leukemia) was > 100000 nM, the TGI (MDA-MB-231 breast) was > 100000 nM and the TGI (786-0 renal) was > 100000 nM. The TGI (HOP-62 NSCLC) was 27900 nM, the TGI (CAKI-1 renal) was 61200 nM and the TGI (MOLT-4 leukemia) was > 100000 nM. For the same compound, the TGI (SF-268 CNS) was 35200 nM, the TGI (SF-295 CNS) was 74000 nM and the TGI (BT-549 breast) was > 100000 nM. For the same compound, the TGI (HT29 colon) was > 100000 nM, the TGI (UACC-62 melanoma) was > 100000 nM and the TGI (MCF7 breast) was > 100000 nM. The TGI (RXF 393 renal) was 38700 nM, the TGI (SF-539 CNS) was > 100000 nM and the TGI (A498 renal) was > 100000 nM. The TGI (HL-60(TB) leukemia) was > 100000 nM, the TGI (SNB-19 CNS) was > 100000 nM and the TGI (OVCAR-8 ovarian) was 47300 nM. For the same compound, the TGI (SW-620 colon) was > 100000 nM, the TGI (LOX IMVI melanoma) was > 100000 nM and the TGI (IGROV1 ovarian) was 51500 nM. The TGI (ACHN renal) was > 100000 nM, the TGI (U251 CNS) was > 100000 nM and the TGI (OVCAR-4 ovarian) was > 100000 nM. The TGI (EKVX NSCLC) was > 100000 nM, the TGI (RPMI-8226 leukemia) was > 100000 nM and the TGI (SNB-75 CNS) was 39700 nM. For the same compound, the TGI (CCRF-CEM leukemia) was > 100000 nM, the TGI (MDA-MB-435) was > 100000 nM and the TGI (NCI-H460 lung) was > 100000 nM. The TGI (COLO 205 colon) was > 100000 nM, the TGI (PC-3 prostate) was > 100000 nM and the TGI (SK-MEL-5 melanoma) was > 100000 nM. For the same compound, the TGI (SK-OV-3 ovarian) was 71600 nM and the TGI (NCI/ADR-RES ovarian) was > 100000 nM.
Work on `COc1cccc2c1ccc1nc3cccc(C(=O)N[C@H](C)CN(C)C)c3nc12` yielded a GI50 (HS 578T breast) of 166 nM, a TGI (HS 578T breast) of 3420 nM and a GI50 (T-47D breast) of 159 nM. It also gave a TGI (T-47D breast) of 974 nM, a GI50 (HCT-116 colon) of 37.9 nM and a TGI (HCT-116 colon) of 508 nM. For the same compound, the GI50 (DU-145 prostate) was 73.5 nM, the TGI (DU-145 prostate) was 3710 nM and the GI50 (K-562 leukemia) was 47.4 nM. The TGI (K-562 leukemia) was 4770 nM, the GI50 (UACC-257 melanoma) was 160 nM and the TGI (UACC-257 melanoma) was 659 nM. For the same compound, the GI50 (SK-MEL-2 melanoma) was 175 nM, the TGI (SK-MEL-2 melanoma) was 643 nM and the GI50 (M14 melanoma) was 138 nM. The TGI (M14 melanoma) was 339 nM, the GI50 (NCI-H23 lung) was 92.9 nM and the TGI (NCI-H23 lung) was 382 nM. For the same compound, the GI50 (HCT-15 colon) was 53 nM, the TGI (HCT-15 colon) was 10800 nM and the GI50 (HCC-2998 colon) was 108 nM. For the same compound, the TGI (HCC-2998 colon) was 298 nM, the GI50 (SK-MEL-28 melanoma) was 221 nM and the TGI (SK-MEL-28 melanoma) was 1510 nM. The GI50 (TK-10 renal) was 76.2 nM, the TGI (TK-10 renal) was 512 nM and the GI50 (KM12 colon) was 72.4 nM. The TGI (KM12 colon) was 2330 nM, the GI50 (SR leukemia) was 31.5 nM and the GI50 (MDA-MB-231 breast) was 178 nM. For the same compound, the TGI (MDA-MB-231 breast) was 3250 nM, the GI50 (786-0 renal) was 88.7 nM and the TGI (786-0 renal) was 2440 nM. It also gave a GI50 (HOP-62 NSCLC) of 84 nM, a TGI (HOP-62 NSCLC) of 787 nM and a GI50 (SN12C renal) of 87.9 nM. For the same compound, the TGI (SN12C renal) was 11700 nM, the GI50 (MOLT-4 leukemia) was 45.4 nM and the TGI (MOLT-4 leukemia) was 4850 nM. The GI50 (NCI-H522 lung) was 57.9 nM, the TGI (NCI-H522 lung) was 279 nM and the GI50 (OVCAR-5 ovarian) was 154 nM. It also gave a TGI (OVCAR-5 ovarian) of 11300 nM, a GI50 (SF-268 CNS) of 65.4 nM and a TGI (SF-268 CNS) of 916 nM. The GI50 (SF-295 CNS) was 58.6 nM, the TGI (SF-295 CNS) was 2580 nM and the GI50 (BT-549 breast) was 795 nM. For the same compound, the TGI (BT-549 breast) was 2930 nM, the GI50 (HT29 colon) was 42.7 nM and the TGI (HT29 colon) was 365 nM. For the same compound, the GI50 (UACC-62 melanoma) was 44.7 nM, the TGI (UACC-62 melanoma) was 198 nM and the GI50 (MCF7 breast) was 34.1 nM. The TGI (MCF7 breast) was 1580 nM, the GI50 (RXF 393 renal) was 98.4 nM and the TGI (RXF 393 renal) was 350 nM. For the same compound, the GI50 (A549 NSCLC) was 40.2 nM, the TGI (A549 NSCLC) was 1990 nM and the GI50 (SF-539 CNS) was 157 nM. For the same compound, the TGI (SF-539 CNS) was 1800 nM, the GI50 (A498 renal) was 79.3 nM and the TGI (A498 renal) was 235 nM. For the same compound, the GI50 (HL-60(TB) leukemia) was 320 nM, the TGI (HL-60(TB) leukemia) was 1980 nM and the GI50 (SNB-19 CNS) was 90.7 nM. For the same compound, the TGI (SNB-19 CNS) was 10900 nM, the GI50 (OVCAR-8 ovarian) was 52.8 nM and the TGI (OVCAR-8 ovarian) was 9500 nM. The GI50 (SW-620 colon) was 39 nM, the TGI (SW-620 colon) was 694 nM and the GI50 (MALME-3M melanoma) was 80.6 nM. It also gave a TGI (MALME-3M melanoma) of 473 nM, a GI50 (LOX IMVI melanoma) of 47.4 nM and a TGI (LOX IMVI melanoma) of 550 nM. It also gave a GI50 (IGROV1 ovarian) of 54.9 nM, a TGI (IGROV1 ovarian) of 11900 nM and a GI50 (ACHN renal) of 42.6 nM. It also gave a TGI (ACHN renal) of 10600 nM, a GI50 (U251 CNS) of 44.1 nM and a TGI (U251 CNS) of 8280 nM. For the same compound, the GI50 (OVCAR-4 ovarian) was 92.7 nM, the TGI (OVCAR-4 ovarian) was 894 nM and the GI50 (EKVX NSCLC) was 141 nM. It also gave a TGI (EKVX NSCLC) of 3160 nM, a GI50 (OVCAR-3 ovarian) of 102 nM and a TGI (OVCAR-3 ovarian) of 511 nM. It also gave a GI50 (RPMI-8226 leukemia) of 91.8 nM, a TGI (RPMI-8226 leukemia) of 647 nM and a GI50 (SNB-75 CNS) of 205 nM. The TGI (SNB-75 CNS) was 1160 nM, the GI50 (CCRF-CEM leukemia) was 120 nM and the TGI (CCRF-CEM leukemia) was 7000 nM. The GI50 (MDA-MB-435) was 97.6 nM, the TGI (MDA-MB-435) was 986 nM and the GI50 (NCI-H460 lung) was 35.4 nM. The TGI (NCI-H460 lung) was 221 nM, the GI50 (COLO 205 colon) was 64.6 nM and the TGI (COLO 205 colon) was 282 nM. It also gave a GI50 (PC-3 prostate) of 81.9 nM, a TGI (PC-3 prostate) of 2130 nM and a GI50 (SK-MEL-5 melanoma) of 125 nM. For the same compound, the TGI (SK-MEL-5 melanoma) was 342 nM, the GI50 (SK-OV-3 ovarian) was 144 nM and the TGI (SK-OV-3 ovarian) was 1890 nM. For the same compound, the GI50 (NCI/ADR-RES ovarian) was 72.1 nM and the TGI (NCI/ADR-RES ovarian) was 554 nM.
